Structures can show the parent of a compound that is named as a salt. Where two headings read alike, the source gives them in different places.
Assays:
[1] = 60±2° C., 75±5% relative humidity
Description: (§1) The assay of the acid addition salt of clopidogrel was measured using HPLC condition A, the amount of hydrolyzed impurities of the acid addition salt of clopidogrel was measured using HPLC condition B, the optical purity of the acid addition salt of clopidogrel (i.e., the amount of the levorotatory isomers) was measured using the HPLC condition C, and the water content of the acid addition salt of clopidogrel was measured with a Karl-Fisher titrator.

[2] = 60±2° C., 75±5% RH; for Relative amount compared to the initial amount: HPLC condition A; for Amount of hydrolyzed impurities (formula (III)) of an acid addition salt of clopidogrel: HPLC condition B; for Amount of levorotatory isomers (formula (IV)) of an acid addition salt of clopidogrel: HPLC condition C
Description: Condition A: For the measurement of an assay of an acid addition salt of clopidogrel
• Column: Kromasil C18, 5 μm (250 mm×4.6 mm) • Detector: 220 nm • Flow rate: 1.5 ml/minute • Mobile phase: Na2HPO4—NaH2PO4 buffer solution: THF: CH3CN=5:2:3 (v/v) Condition B: For the measurement of an amount of hydrolyzed impurities of an acid addition salt of clopidogrel • Column: Capcellpak C18 MG, 5 μm (250 mm×4.6 mm) • Detector: 210 nm • Flow rate: 1.0 ml/min. • Mobile phase: KH2PO4 buffer solution/CH3CN (70/30): KH2PO4 buffer solution/CH3CN (30/70)=0:100 100:0 (v/v, gradient elution) Condition C: For the measurement of an optical purity of an acid addition salt of clopidogrel • Column: Chiralpak AD, 5 μm (250 mm×4.6 mm) • Detector: 210 nm • Flow rate: 1.0 ml/min. • Mobile phase: n-hexane: isopropanol=90:10 (v/v)
as §1

[3] = Description: Effects on the bleeding time of the conventional clopidogrel hydrogen sulfate obtained in Comparative Example 1 and the inventive clopidogrel 2-naphthalenesulfonate and clopidogrel 1,5-naphthalenedisulfonate monohydrate obtained in Examples 1 and 2, respectively, were tested using rat in accordance with the standard method (see Dejana E & Villa S, Thromb. Haemostas. 48: 108-111, 1982). The bleeding time is an index representing the extent of thrombus formed by platelet aggregation and tests were performed using male and female rats.
Forty 11 to 12-weeks old male and female Sprague-Dawley rats (average weight: 270±25 g) were divided into four groups each consisting of five male rats and five female rats, and the male rats of the first group were each orally administered with 5.0 mg/kg of clopidogrel hydrogen sulfate (3.83 mg/kg as clopidogrel) and the female rats of the first group were each orally administered with 2.5 mg/kg (1.92 mg/kg as clopidogrel). For the second group, the male and female rats were orally each administered with 6.30 mg/kg and 3.15 mg/kg of clopidogrel 2-naphthalenesulfonate, respectively, and for the third group, the male and female rats were each orally administered with 5.65 mg/kg and 2.83 mg/kg of clopidogrel 1,5-naphthalenedisulfonate monohydrate, respectively. The drug was orally administered in the form of 1% DMSO solution in an amount in volume of 10 ml/kg body weight. As a comparison, only 1% DMSO solution was administered to the last group of rats.
After fixing an unanesthetized rat with an experimental holder, the tail of the rat was pierced at a position of 1.5 cm from the end of tail using a need of 26 G×½, 0.45×13 mm at a depth of 1 mm. The time of bleeding to cease was measured with absorbing the bleeding blood on a filter paper every 10 second.

[4] = Female Sprague-Dawley rats, oral dose corresponding to 1.92 mg/kg of clopidogrel
[5] = Male Sprague-Dawley rats, oral dose corresponding to 3.83 mg/kg of clopidogrel

COC(=O)[C@H](c1ccccc1Cl)N1CCc2sccc2C1 [1,5-Naphthalenedisulfonate monohydrate, Clopidogrel 1,5-naphthalenedisulfonate Monohydrate] gave a Water content ([1]; 0 day, Monohydrate) of 1.8%, a Water content ([1]; 7 days, Monohydrate) of 1.8% and a Water content ([1]; 14 days, Monohydrate) of 1.9%. It also gave a Water content ([1]; 21 days, Monohydrate) of 1.9%, a Water content ([1]; 28 days, Monohydrate) of 1.8% and a Water content ([1]; 35 days, Monohydrate) of 1.9%. For the same molecule, the “Relative amount compared to the initial amount” value (“Relative amount” for short) ([2]; 0 day) was 100%, the “Amount of hydrolyzed impurities (formula (III)) of an acid addition salt of clopidogrel” value (from here on “Amount of hydrolyzed impurities”) ([2]; 0 day) was 0.0% and the “Amount of levorotatory isomers (formula (IV)) of an acid addition salt of clopidogrel” value (shortened to “Amount of levorotatory isomers”) ([2]; 0 day, Monohydrate) was 0.10%. The “Relative amount” value ([2]; 7 days, Monohydrate) was 100%, the “Amount of levorotatory isomers” value ([2]; 7 days, Monohydrate) was 0.10% and the “Relative amount” value ([2]; 14 days, Monohydrate) was 100%. The “Amount of hydrolyzed impurities” value ([2]; 14 days, Monohydrate) was 0.02%, the “Amount of levorotatory isomers” value ([2]; 14 days, Monohydrate) was 0.10% and the “Relative amount” value ([2]; 21 days, Monohydrate) was 100%. For the same molecule, the “Amount of levorotatory isomers” value ([2]; 21 days, Monohydrate) was 0.09%, the “Relative amount” value ([2]; 28 days, Monohydrate) was 99.9% and the “Amount of hydrolyzed impurities” value ([2]; 28 days, Monohydrate) was 0.04%. For the same molecule, the “Amount of levorotatory isomers” value ([2]; 28 days, Monohydrate) was 0.11%, the “Relative amount” value ([2]; 35 days, Monohydrate) was 99.9% and the “Amount of hydrolyzed impurities” value ([2]; 35 days, Monohydrate) was 0.05%. For the same molecule, the “Amount of levorotatory isomers” value ([2]; 35 days, Monohydrate) was 0.10%, the Bleeding time ([3]; Female Sprague-Dawley rats, oral dose corresponding to 1.92 mg/kg of clopidogrel, Monohydrate) was 152.5 ± 3.5 s and the Bleeding time ([3]; Male Sprague-Dawley rats, oral dose corresponding to 3.83 mg/kg of clopidogrel, Monohydrate) was 163 ± 5.8 s.
Molecule COC(=O)[C@H](c1ccccc1Cl)N1CCc2sccc2C1 [2-Naphthalenesulfonate, Clopidogrel 2-naphthalenesulfonate] has a Water content ([1]; 0 day) of 0.1%, a Water content ([1]; 7 days) of 0.1% and a Water content ([1]; 14 days) of 0.1%. It also gave a Water content ([1]; 21 days) of 0.1%, a Water content ([1]; 28 days) of 0.1% and a Water content ([1]; 35 days) of 0.1%. The “Relative amount” value ([2]; 0 day) was 100%, the “Amount of hydrolyzed impurities” value ([2]; 0 day) was 0.0% and the “Amount of levorotatory isomers” value ([2]; 0 day) was 0.10%. For the same molecule, the “Relative amount” value ([2]; 7 days) was 99.1%, the “Amount of levorotatory isomers” value ([2]; 7 days) was 0.10% and the “Relative amount” value ([2]; 14 days) was 99.3%. For the same molecule, the “Amount of hydrolyzed impurities” value ([2]; 14 days) was 0.12%, the “Amount of levorotatory isomers” value ([2]; 14 days) was 0.10% and the “Relative amount” value ([2]; 21 days) was 99.1%. For the same molecule, the “Amount of levorotatory isomers” value ([2]; 21 days) was 0.10%, the “Relative amount” value ([2]; 28 days) was 99.0% and the “Amount of hydrolyzed impurities” value ([2]; 28 days) was 0.16%. The “Amount of levorotatory isomers” value ([2]; 28 days) was 0.11%, the “Relative amount” value ([2]; 35 days) was 99.2% and the “Amount of hydrolyzed impurities” value ([2]; 35 days) was 0.18%. For the same molecule, the “Amount of levorotatory isomers” value ([2]; 35 days) was 0.13%, the Bleeding time [3, 4] was 157 ± 10.6 s and the Bleeding time [3, 5] was 190 ± 5.0 s.
Molecule COC(=O)[C@H](c1ccccc1Cl)N1CCc2sccc2C1 [Hydrogen sulfate, Clopidogrel Hydrogen Sulfate, reference compound] has a Water content ([1]; 0 day) of 0.1%, a Water content ([1]; 7 days) of 0.1% and a Water content ([1]; 14 days) of 0.1%. It also gave a Water content ([1]; 21 days) of 0.4%, a Water content ([1]; 28 days) of 2.0% and a Water content ([1]; 35 days) of 4.8%. For the same molecule, the “Relative amount” value ([2]; 0 day) was 100%, the “Amount of hydrolyzed impurities” value ([2]; 0 day) was 0.0% and the “Amount of levorotatory isomers” value ([2]; 0 day) was 0.35%. The “Relative amount” value ([2]; 7 days) was 99.6%, the “Amount of levorotatory isomers” value ([2]; 7 days) was 0.35% and the “Relative amount” value ([2]; 14 days) was 98.7%. The “Amount of hydrolyzed impurities” value ([2]; 14 days) was 0.63%, the “Amount of levorotatory isomers” value ([2]; 14 days) was 0.40% and the “Relative amount” value ([2]; 21 days) was 97.7%. The “Amount of levorotatory isomers” value ([2]; 21 days) was 0.49%, the “Relative amount” value ([2]; 28 days) was 94.4% and the “Amount of hydrolyzed impurities” value ([2]; 28 days) was 2.0%. The “Amount of levorotatory isomers” value ([2]; 28 days) was 0.67%, the “Relative amount” value ([2]; 35 days) was 87.0% and the “Amount of hydrolyzed impurities” value ([2]; 35 days) was 4.8%. For the same molecule, the “Amount of levorotatory isomers” value ([2]; 35 days) was 1.08%, the Bleeding time [3, 4] was 127.5 ± 10.6 s and the Bleeding time [3, 5] was 135 ± 8.7 s.
